Results published in US9833497B2, “Human originated EGF domain proteins and use of the same” (CHENGDU SOURCEBIO LIMITED-LIABILITY COMPANY, priority 2013, dated 2017).

Assays:
Format in all cases: cell-based
[1] = system: Proteus vulgaris; assay: MIC against Gram-negative bacteria: Proteus vulgaris; settings: 5×10^5 CFU/mL
Summary of the method: (§1)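 Bacteria grown in LB at 37° C to McFarland 0.5, resuspended and seeded at 5×10^5 CFU/mL in 96-well plates. Purified human EGF-domain proteins two-fold serially diluted, triplicate wells; cultured at 37° C, shaking 175 rpm. MIC = lowest protein concentration with no growth.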

[2] = system: Serratia marcescens; assay: MIC against Gram-negative bacteria: Serratia marcescens; settings: 5×10^5 CFU/mL
Summary of the method: as §1

[3] = system: Moraxella catarrhalis; assay: MIC against Gram-negative bacteria: Moraxella catarrhalis; settings: 5×10^5 CFU/mL
Summary of the method: as §1

[4] = system: E. coli DH5α; assay: Antibacterial activity: MIC and growth curve against E. coli DH5α in 96-well plate; settings: minimal inhibitory concentration against E. coli DH5α; 96-well plate, 5×10^5 CFU/mL, 37° C., judged after 8 h
Summary of the method: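 MIC taken as lowest protein level with no bacterial growth, tracked by A600 every 30 min during 37 °C, 175 rpm culture. Two-fold protein series 50-12.5 μg/mL final, triplicate wells, against 5×10^5 CFU/mL of LB-washed mid-log cells.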

[5] = system: Klebsiella pneumonia; assay: MIC against Gram-negative bacteria: Klebsiella pneumonia; settings: 5×10^5 CFU/mL
Summary of the method: as §1

[6] = system: Citrobacter diversus; assay: MIC against Gram-negative bacteria: Citrobacter diversus; settings: 5×10^5 CFU/mL
Summary of the method: as §1

[7] = system: Proteus mirabilis; assay: MIC against Gram-negative bacteria: Proteus mirabilis; settings: 5×10^5 CFU/mL
Summary of the method: as §1

[8] = system: Aeromonas hydrophila; assay: MIC against Gram-negative bacteria: Aeromonas hydrophila; settings: 5×10^5 CFU/mL
Summary of the method: as §1

[9] = system: Enterobacter cloacae; assay: MIC against Gram-negative bacteria: Enterobacter cloacae; settings: 5×10^5 CFU/mL
Summary of the method: as §1

[10] = system: Pseudomonas aeruginosa; assay: MIC against Gram-negative bacteria: Pseudomonas aeruginosa; settings: 5×10^5 CFU/mL
Summary of the method: as §1

[11] = system: E. coli BL21; assay: MIC against Gram-negative bacteria: E. coli BL21; settings: 5×10^5 CFU/mL
Summary of the method: as §1

[12] = Proteus vulgaris, 10 h cultivation at 37° C.
[13] = Serratia marcescens, 10 h cultivation at 37° C.
[14] = Moraxella catarrhalis, 10 h cultivation at 37° C.
[15] = Klebsiella pneumonia, 10 h cultivation at 37° C.
[16] = Citrobacter diversus, 10 h cultivation at 37° C.
[17] = Proteus mirabilis, 10 h cultivation at 37° C.
[18] = Aeromonas hydrophila, 10 h cultivation at 37° C.
[19] = Enterobacter cloacae, 10 h cultivation at 37° C.
[20] = Pseudomonas aeruginosa, 10 h cultivation at 37° C.
[21] = E. coli BL21, 10 h cultivation at 37° C.
[22] = Proteus vulgaris, 96-well plate, 37° C., 10 h
[23] = Serratia marcescens, 96-well plate, 37° C., 10 h
[24] = Moraxella catarrhalis, 96-well plate, 37° C., 10 h
[25] = Klebsiella pneumonia, 96-well plate, 37° C., 10 h
[26] = Citrobacter diversus, 96-well plate, 37° C., 10 h
[27] = Proteus mirabilis, 96-well plate, 37° C., 10 h
[28] = Aeromonas hydrophila, 96-well plate, 37° C., 10 h
[29] = Enterobacter cloacae, 96-well plate, 37° C., 10 h
[30] = Pseudomonas aeruginosa, 96-well plate, 37° C., 10 h
[31] = E. coli BL21, 96-well plate, 37° C., 10 h

**Q.** What does the source list for “PRT1390 (EEDCLDPMCSNHGICVKGECHCSTGWGGVNCET; listed as Homo sapiens)”?
**A.** MIC against P. vulgaris [1, 12]: 50 µg/mL; MIC against S. marcescens [2, 13]: 50 µg/mL; MIC against M. catarrhalis [3, 14]: 50 µg/mL; MIC [4]: 12.5 µg/mL; MIC against K. pneumonia [5, 15]: 50 µg/mL; MIC against C. diversus [6, 16]: 25 µg/mL; MIC against P. mirabilis [7, 17]: 25 µg/mL; MIC against A. hydrophila [8, 18]: 50 µg/mL; MIC against E. cloacae [9, 19]: 12.5 µg/mL; MIC against P. aeruginosa [10, 20]: 12.5 µg/mL; MIC against E. coli BL21 [11, 21]: 12.5 µg/mL

**Q.** How did the “MIC against P. vulgaris” value [1, 22] turn out when “PRT1292 (NVDDCEDNDCENNSTCVDGINNYTCLCPPEYTGELCE; listed as Homo sapiens)” was run?
**A.** 50 µg/mL

**Q.** What about the “MIC against S. marcescens” value [2, 23] of the same substance?
**A.** 12.5 µg/mL

**Q.** What about the “MIC against M. catarrhalis” value [3, 24] of the same substance?
**A.** 50 µg/mL

**Q.** And the MIC [4]?
**A.** 12.5 µg/mL

**Q.** What about the “MIC against K. pneumonia” value [5, 25] of the same substance?
**A.** 12.5 µg/mL

**Q.** What about the “MIC against C. diversus” value [6, 26] of the same substance?
**A.** 12.5 µg/mL

**Q.** And the “MIC against P. mirabilis” value [7, 27]?
**A.** 12.5 µg/mL

**Q.** And the “MIC against A. hydrophila” value [8, 28]?
**A.** 25 µg/mL

**Q.** What about the “MIC against E. cloacae” value [9, 29] of the same substance?
**A.** 50 µg/mL

**Q.** And the “MIC against P. aeruginosa” value [10, 30]?
**A.** 12.5 µg/mL

**Q.** What about the “MIC against E. coli BL21” value [11, 31] of the same substance?
**A.** 12.5 µg/mL

**Q.** For “PRT33 (ACELHTFGRTCKERCSGQEGCKSYVFCLPDPYGCSCATGWKGLQCN; listed as Homo sapiens)”, which “MIC (μg/mL) P. vulgaris” value [1, 22] is on record?
**A.** 25 µg/mL

**Q.** And the “MIC (μg/mL) S. marcescens” value [2, 23]?
**A.** 12.5 µg/mL

**Q.** And the “MIC (μg/mL) M. catarrhalis” value [3, 24]?
**A.** 12.5 µg/mL

**Q.** And the MIC [4]?
**A.** 12.5 µg/mL

**Q.** What about the “MIC (μg/mL) K. pneumonia” value [5, 25] of the same substance?
**A.** 12.5 µg/mL

**Q.** What about the “MIC (μg/mL) C. diversus” value [6, 26] of the same substance?
**A.** 12.5 µg/mL

**Q.** What about the “MIC (μg/mL) P. mirabilis” value [7, 27] of the same substance?
**A.** 25 µg/mL

**Q.** What about the “MIC (μg/mL) A. hydrophila” value [8, 28] of the same substance?
**A.** 12.5 µg/mL

**Q.** What about the “MIC (μg/mL) E. cloacae” value [9, 29] of the same substance?
**A.** 25 µg/mL

**Q.** And the “MIC (μg/mL) P. aeruginosa” value [10, 30]?
**A.** 12.5 µg/mL

**Q.** And the “MIC (μg/mL) E. coli BL21” value [11, 31]?
**A.** 50 µg/mL

**Q.** Which “MIC against P. vulgaris” value ([1]; 96-well plate, 37° C., 10 h) does the source give for “PRT522 (CVCNGHAEVCNINNPEKLFRCECQHHTCGETCDRCCTGYNQRRWRPAAWEQSHECEA; listed as Homo sapiens)” here?
**A.** 50 µg/mL

**Q.** And the “MIC against S. marcescens” value ([2]; 96-well plate, 37° C., 10 h)?
**A.** 25 µg/mL

**Q.** And the “MIC against M. catarrhalis” value ([3]; 96-well plate, 37° C., 10 h)?
**A.** 12.5 µg/mL

**Q.** And the MIC [4]?
**A.** 25 µg/mL

**Q.** And the “MIC against K. pneumonia” value ([5]; 96-well plate, 37° C., 10 h)?
**A.** 12.5 µg/mL

**Q.** What about the “MIC against C. diversus” value ([6]; 96-well plate, 37° C., 10 h) of the same substance?
**A.** 25 µg/mL

**Q.** And the “MIC against P. mirabilis” value ([7]; 96-well plate, 37° C., 10 h)?
**A.** 25 µg/mL

**Q.** What about the “MIC against A. hydrophila” value ([8]; 96-well plate, 37° C., 10 h) of the same substance?
**A.** 50 µg/mL

**Q.** And the “MIC against E. cloacae” value ([9]; 96-well plate, 37° C., 10 h)?
**A.** 25 µg/mL

**Q.** And the “MIC against P. aeruginosa” value ([10]; 96-well plate, 37° C., 10 h)?
**A.** 25 µg/mL

**Q.** What about the “MIC against E. coli BL21” value ([11]; 96-well plate, 37° C., 10 h) of the same substance?
**A.** 50 µg/mL

**Q.** “PRT447 (DVDECAQALHDRRPSQDCHNLSGSYQCTCPDGYRKIGPE; listed as Homo sapiens)” was tested. Which “MIC against P. vulgaris” value ([1]; 96-well plate, 37° C., 10 h) did it give?
**A.** 12.5 µg/mL

**Q.** And the “MIC against S. marcescens” value ([2]; 96-well plate, 37° C., 10 h)?
**A.** 50 µg/mL

**Q.** And the “MIC against M. catarrhalis” value ([3]; 96-well plate, 37° C., 10 h)?
**A.** 25 µg/mL

**Q.** What about the MIC [4] of the same substance?
**A.** 50 µg/mL

**Q.** And the “MIC against K. pneumonia” value ([5]; 96-well plate, 37° C., 10 h)?
**A.** 25 µg/mL

**Q.** And the “MIC against C. diversus” value ([6]; 96-well plate, 37° C., 10 h)?
**A.** 12.5 µg/mL

**Q.** What about the “MIC against P. mirabilis” value ([7]; 96-well plate, 37° C., 10 h) of the same substance?
**A.** 50 µg/mL

**Q.** And the “MIC against A. hydrophila” value ([8]; 96-well plate, 37° C., 10 h)?
**A.** 25 µg/mL

**Q.** And the “MIC against E. cloacae” value ([9]; 96-well plate, 37° C., 10 h)?
**A.** 50 µg/mL

**Q.** And the “MIC against P. aeruginosa” value ([10]; 96-well plate, 37° C., 10 h)?
**A.** 12.5 µg/mL

**Q.** And the “MIC against E. coli BL21” value ([11]; 96-well plate, 37° C., 10 h)?
**A.** 25 µg/mL

**Q.** For “PRT538 (CPCPLPHLANFAESCYRKNGAVRCICNENYAGPNCERCAPGYYGNPLLIGSTCKK; listed as Homo sapiens)”, which “MIC against P. vulgaris” value ([1]; 96-well plate, 37° C., 10 h) is on record?
**A.** 12.5 µg/mL

**Q.** What about the “MIC against S. marcescens” value ([2]; 96-well plate, 37° C., 10 h) of the same substance?
**A.** 50 µg/mL

**Q.** What about the “MIC against M. catarrhalis” value ([3]; 96-well plate, 37° C., 10 h) of the same substance?
**A.** 12.5 µg/mL

**Q.** And the MIC [4]?
**A.** 25 µg/mL

**Q.** And the “MIC against K. pneumonia” value ([5]; 96-well plate, 37° C., 10 h)?
**A.** 12.5 µg/mL

**Q.** What about the “MIC against C. diversus” value ([6]; 96-well plate, 37° C., 10 h) of the same substance?
**A.** 25 µg/mL

**Q.** What about the “MIC against P. mirabilis” value ([7]; 96-well plate, 37° C., 10 h) of the same substance?
**A.** 12.5 µg/mL

**Q.** What about the “MIC against A. hydrophila” value ([8]; 96-well plate, 37° C., 10 h) of the same substance?
**A.** 12.5 µg/mL

**Q.** And the “MIC against E. cloacae” value ([9]; 96-well plate, 37° C., 10 h)?
**A.** 25 µg/mL

**Q.** And the “MIC against P. aeruginosa” value ([10]; 96-well plate, 37° C., 10 h)?
**A.** 25 µg/mL

**Q.** What about the “MIC against E. coli BL21” value ([11]; 96-well plate, 37° C., 10 h) of the same substance?
**A.** 12.5 µg/mL

**Q.** Which “MIC against P. vulgaris” value [1, 12] does the source give for “PRT1482 (LCSFGCGSGICIAPNVCSCQDGEQGATCP; listed as Homo sapiens)” here?
**A.** 25 µg/mL

**Q.** What about the “MIC against S. marcescens” value [2, 13] of the same substance?
**A.** 25 µg/mL

**Q.** What about the “MIC against M. catarrhalis” value [3, 14] of the same substance?
**A.** 25 µg/mL

**Q.** And the MIC [4]?
**A.** 12.5 µg/mL

**Q.** And the “MIC against K. pneumonia” value [5, 15]?
**A.** 50 µg/mL

**Q.** What about the “MIC against C. diversus” value [6, 16] of the same substance?
**A.** 12.5 µg/mL

**Q.** And the “MIC against P. mirabilis” value [7, 17]?
**A.** 50 µg/mL

**Q.** And the “MIC against A. hydrophila” value [8, 18]?
**A.** 50 µg/mL

**Q.** And the “MIC against E. cloacae” value [9, 19]?
**A.** 12.5 µg/mL

**Q.** What about the “MIC against P. aeruginosa” value [10, 20] of the same substance?
**A.** 12.5 µg/mL

**Q.** What about the “MIC against E. coli BL21” value [11, 21] of the same substance?
**A.** 50 µg/mL
